Assay: Cetylpyridinium chloride adsorption on mucin-coated hydroxyapatite disks, HPLC of extract
Assay type: physicochemical
Details: for % Activity: relative to no surfactant
Description: Disks of hydroxyapatite (HAP) measuring 0.5 inch diameter and 0.04 inch thick were obtained from Clarkson Chromatography Products (Williamsport, Penn.). The disks were hydrated in deionized water for one hour and then allowed to air dry.
A 1% dispersion of bovine submaxillary mucin (type 1S, from Sigma) was then prepared. The HAP disks were then soaked in the 1% mucin dispersion overnight. The disks were then allowed to air dry for al least 2 hours. These disks, composed of HAP on which was deposited a layer of mucin, represented an oral surface.
The disks were soaked in 5 ml of the test solution for 10 minutes in a polystyrene petri dish (35 mm diameter×10 mm deep, from Becton Dickinson). The disks were then removed, rinsed for 3 seconds with deionized water on each side with a wash bottle.
The extractant solution is composed of 60 parts of a 20 mM phosphate buffer and 40 parts methanol, in which is dissolved 30 mM cetyltrimethylammonium bromide. The disks were soaked in 5 ml of the extractant solution for 2 hours.

[1] = Example 2: test solution as Example 1, also 0.125% by weight sodium bicarbonate
[2] = Example 1: test solution 0.125% cetylpyridinium chloride + 0.9% surfactant, disks soaked 10 minutes
[3] = Example 1: test solution 0.125% cetylpyridinium chloride + 0.9% surfactant

Compound | CPC adsorbed [1] | % Activity [1] | CPC adsorbed [2] | % Activity [3] | cetylpyridinium chloride absorbed (in words) (Example 1 test solutions)
CCCCCCCCCC[NH2+][O-] [Decylamine oxide] | 39.1 μg/disk | 62.7% | – | – | –
CCCCCCCC[NH2+][O-] [Octylamine oxide] | 47.4 μg/disk | 76.0% | – | – | –
Cocamidopropyl betaine | 41.2 μg/disk | 66.0% | 41.8 μg/disk | 70.4% | clearly superior
Cocoamphodiacetate | – | – | 8.0 μg/disk | 13.5% | –
Cocobetaine | 48.8 μg/disk | 78.2% | – | – | –
Dodecyl-Amphodiacetate | 10.6 μg/disk | 17.0% | – | – | –
Dodecyl-Iminodipropionate | 7.4 μg/disk | 11.9% | – | – | –

Reference: patent US6471948B1 (Church & Dwight Co. Inc., priority 2000, dated 2002)
